Measurements published in ChEMBL document CHEMBL3352015, “The binding mechanisms of plasma protein to active compounds in Alismaorientale rhizomes (Alismatis Rhizoma)” (Bioorg Med Chem Lett, 2014).

Columns and labels:
Assay type in all cases: ADME, cell-free; call rule not given here
[1] = Binding affinity to Hb in rat plasma by SDS-PAGE analysis
[2] = Binding affinity to Hb in rat plasma at 1.5 x 10' -5 to 2.8 x 10' -5 mmol/l by CD spectroscopy
[3] = Plasma protein binding in rat at 1020 ug/ml by ultrafiltration method; conditions: read-out: PPB (converted)
[4] = Plasma protein binding in rat at 816 ug/ml by ultrafiltration method; conditions: read-out: PPB (converted)
[5] = Binding affinity to Hb in rat plasma at 2.5 x 10' -6 to 15 x 10' -6 mmol/l by fluorescence emission spectroscopy
[6] = Plasma protein binding in rat at 408 ug/ml by ultrafiltration method; conditions: read-out: PPB (converted)

Activity [1]: Active
Activity [2]: Active
fraction unbound at 1020 ug/ml [3]: 0.279
fraction unbound at 816 ug/ml [4]: 0.29
Activity [5]: Active
fraction unbound at 408 ug/ml [6]: 0.3
SMILES: CC(=O)O[C@H]([C@@H](O)C[C@@H](C)C1=C2C[C@H](O)[C@H]3[C@@]4(C)CCC(=O)C(C)(C)[C@@H]4CC[C@]3(C)[C@@]2(C)CC1)C(C)(C)O
